Results on one molecule are retold here after ChEMBL document CHEMBL3045774, “Viridepyronone, a new antifungal 6-substituted 2H-pyran-2-one produced by Trichoderma viride” (2003).

Structures are written as SMILES. In brackets after ≈: the same amount, converted by molar mass. Activity calls are given as the source filed them. The rule behind the calls is not given here.

Assay [1] has as its system Athelia rolfsii. Put plainly: Antifungal activity against Athelia rolfsii assessed as mycelial growth inhibition at 246 ug/mL after 3 days. It is filed as functional, organism-based. To be noted: Agroathelia rolfsii.
In assay [2] the test system is Athelia rolfsii. Kind of assay: Antifungal activity against Athelia rolfsii assessed as growth inhibition after 3 days. It is filed as functional. The settings on record: Agroathelia rolfsii, 72 h.
The test system of assay [3] is Athelia rolfsii. Put plainly: Antifungal activity against Athelia rolfsii assessed as growth inhibition at 6.9 x 10^-2 M after 3 days by paper disk assay relative to control. It is filed as functional. The settings on record: Agroathelia rolfsii, 72 h; read-out: GI.

A word on the MIC: it is the least concentration at which growth counts as inhibited. In the case of `CC(=O)CCCc1cccc(=O)o1` [VIRIDEPYRONONE], the “growth inhibition (GI)” value with Athelia rolfsii [1] was “Active”. For the same molecule, the MIC in the assay on Athelia rolfsii [2] was found to be 196 µg/mL (≈ 1090 µM). For the same molecule, in the assay with Athelia rolfsii [3], the inhibition of growth at 69000 µM amounted to 48%.
